Measurements: ChEMBL document CHEMBL4765241, “Identification and Preclinical Pharmacology of ((1 R,3 S)-1-Amino-3-(( S)-6-(2-methoxyphenethyl)-5,6,7,8-tetrahydronaphthalen-2-yl)cyclopentyl)methanol (BMS-986166): A Differentiated Sphingosine-1-phosphate Receptor 1 (S1P) Modulator Advanced into Clinical Trials” (J Med Chem, 2019)
Values belong to the compound of their own block, whether it stands above or below them.

What was measured:
[1] = Drug metabolism in Lewis rat blood assessed as concentration of parent compound at 2 mg/kg, po measured at 4 hrs by LC-MS/MS analysis; format: ADME, organism-based; conditions: read-out: Ct
[2] = Drug metabolism in Lewis rat blood assessed as concentration of parent compound at 2 mg/kg, po measured at 24 hrs by LC-MS/MS analysis; format: ADME, organism-based; conditions: read-out: Ct
[3] = Pulmonary toxicity in Lewis rat assessed as elevation of BAL protein level at 2 mg/kg by advia1800 chemistry analyzer; format: organism-based; conditions: in vivo
Rattus norvegicus [4] = assay: Drug metabolism in Lewis rat blood assessed as concentration of phosphate ester metabolite formation at 2 mg/kg, po measured at 4 hrs by LC-MS/MS analysis; conditions: in vivo
Rattus norvegicus [5] = assay: Reduction in circulating lymphocytes in Lewis rat blood at 2 mg/kg, po measured at 4 hrs by hematology analyzer based analysis; format: functional; design: scale not given: the % may be the effect or the level left
[6] = Ratio of drug metabolism in Lewis rat blood assessed as phosphate ester metabolite to parent drug at 2 mg/kg, po measured at 24 hrs by LC-MS/MS analysis; format: ADME, organism-based; conditions: in vivo
Rattus norvegicus [7] = assay: Reduction in circulating lymphocytes in Lewis rat blood at 2 mg/kg, po measured at 24 hrs by hematology analyzer based analysis; format: functional; design: scale not given: the % may be the effect or the level left
Rattus norvegicus [8] = assay: Reduction in circulating lymphocytes in Lewis rat blood assessed as effective dose after oral dosing measured at 24 hrs by hematology analyzer based analysis; format: functional
[9] = Pulmonary toxicity in Lewis rat assessed as elevation of BAL protein level at 10 mg/kg by advia1800 chemistry analyzer; format: organism-based; conditions: in vivo
[10] = Half-life in Lewis rat at 2 mg/kg, po measured over 72 hrs by LC-MS/MS analysis; format: ADME, organism-based; conditions: in vivo
[11] = Drug metabolism in Balb/c mouse blood assessed as concentration of parent compound at 1 mg/kg, po measured at 24 hrs by LC-MS/MS analysis; format: ADME, organism-based; conditions: Balb/c, blood, read-out: Ct
[12] = Drug metabolism in Balb/c mouse blood assessed as concentration of parent compound at 1 mg/kg, po measured at 4 hrs by LC-MS/MS analysis; format: ADME, organism-based; conditions: Balb/c, blood, read-out: Ct
[13] = Drug metabolism in Balb/c mouse blood assessed as concentration of phosphate ester metabolite formation at 1 mg/kg, po measured at 24 hrs by LC-MS/MS analysis; format: ADME, organism-based; conditions: in vivo
Mus musculus [14] = assay: Reduction in circulating lymphocytes in Balb/c mouse blood at 1 mg/kg, po measured at 24 hrs by hematology analyzer based analysis; format: functional; design: scale not given: the % may be the effect or the level left
[15] = Drug metabolism in Balb/c mouse blood assessed as concentration of phosphate ester metabolite formation at 50 mg/kg, po measured at 4 hrs by LC-MS/MS analysis; format: ADME, organism-based; conditions: in vivo
[16] = Drug metabolism in Balb/c mouse blood assessed as concentration of parent compound at 50 mg/kg, po measured at 24 hrs by LC-MS/MS analysis; format: ADME, organism-based; conditions: read-out: Ct
[17] = Ratio of drug metabolism in Balb/c mouse blood assessed as phosphate ester metabolite to parent drug at 30 mg/kg, po measured at 24 hrs by LC-MS/MS analysis; conditions: in vivo
[18] = Drug metabolism in Balb/c mouse blood assessed as concentration of phosphate ester metabolite formation at 1 mg/kg, po measured at 4 hrs by LC-MS/MS analysis; format: ADME, organism-based; conditions: in vivo
[19] = Drug metabolism in Balb/c mouse blood assessed as concentration of phosphate ester metabolite formation at 50 mg/kg, po measured at 24 hrs by LC-MS/MS analysis; format: ADME, organism-based; conditions: in vivo
Mus musculus [20] = assay: Reduction in circulating lymphocytes in Balb/c mouse blood at 50 mg/kg, po measured at 24 hrs by hematology analyzer based analysis; format: functional; design: scale not given: the % may be the effect or the level left
[21] = Drug metabolism in Balb/c mouse blood assessed as concentration of parent compound at 50 mg/kg, po measured at 4 hrs by LC-MS/MS analysis; format: ADME, organism-based; conditions: read-out: Ct
Mus musculus [22] = assay: Reduction in circulating lymphocytes in Balb/c mouse blood at 1 mg/kg, po measured at 4 hrs by hematology analyzer based analysis; format: functional; design: scale not given: the % may be the effect or the level left
Mus musculus [23] = assay: Reduction in circulating lymphocytes in Balb/c mouse blood at 50 mg/kg, po measured at 4 hrs by hematology analyzer based analysis; format: functional; design: scale not given: the % may be the effect or the level left
[24] = Cardiotoxicity in human iPSC derived cardiomyocytes assessed as reduction in beating rate at 1 nM measured over 2 hrs by multi-electrode array relative to control; format: toxicity, cell-based; design: scale not given: the % may be the effect or the level left; conditions: stem cell-derived cardiomyocyte, 0.001 µM
[25] = Cardiotoxicity in human iPSC derived cardiomyocytes assessed as reduction in beating rate at 10 nM measured over 2 hrs by multi-electrode array relative to control; format: toxicity, cell-based; design: scale not given: the % may be the effect or the level left; conditions: stem cell-derived cardiomyocyte, 0.01 µM
[26] = Ratio of drug metabolism in Balb/c mouse blood assessed as phosphate ester metabolite to parent drug at 1 mg/kg, po measured at 24 hrs by LC-MS/MS analysis; format: ADME, organism-based; conditions: in vivo
[27] = Pulmonary toxicity in Lewis rat assessed as elevation of BAL protein level at 3 mg/kg by advia1800 chemistry analyzer; format: organism-based; conditions: in vivo
[28] = Drug metabolism in pH 7.4 Tris-HCl buffer assessed as amount of phosphate ester metabolite formation at […] in presence of sphingosine kinase 1,2 and Mg-ATP incubated for 30 mins by TLC based analysis relative to fingolimod

Compound: N[C@]1(CO)CC[C@H](c2ccc3c(c2)CC[C@@H](Cc2ccccc2)C3)C1
- concentration at 24 h [11]: 5.6 nM
- concentration at 4 h [12]: 12 nM
- Drug metabolism ([13]; BLD = below limit of detection): Bld
- Activity (Mus musculus [14]): <10%
- Drug metabolism [15]: 1100 nM
- concentration at 24 h [16]: 530 nM
- Ratio [17]: 1.4
- Drug metabolism [18]: 5.6 nM
- Drug metabolism [19]: 750 nM
- Activity (Mus musculus [20]): 84%
- concentration at 4 h [21]: 2400 nM
- Activity (Mus musculus [22]): <10%
- Activity (Mus musculus [23]): 82%

Compound: COc1cccc(CC[C@H]2CCc3cc([C@H]4CC[C@](N)(COP(=O)(O)O)C4)ccc3C2)c1
- Activity [24]: 23%
- Activity [25]: 20%

Compound: COc1ccccc1CC1CCc2cc([C@H]3CC[C@](N)(CO)C3)ccc2C1 (some centres not stated)
- Activity (Rattus norvegicus [5]): <10%
- Activity (Rattus norvegicus [7]): 13%

Compound: COc1ccccc1CC[C@H]1CCc2cc([C@H]3CC[C@](N)(COP(=O)(O)O)C3)ccc2C1
- Activity [24]: 17%
- Activity [25]: 18%

Compound: COc1ccc(CC[C@@H]2CCc3cc([C@H]4CC[C@](N)(COP(=O)(O)O)C4)ccc3C2)cc1
- Activity [24]: 27%
- Activity [25]: 35%

Compound: COc1cccc(CC[C@@H]2CCc3cc([C@H]4CC[C@](N)(COP(=O)(O)O)C4)ccc3C2)c1
- Activity [24]: 15%
- Activity [25]: 31%

Compound: N[C@]1(CO)CC[C@H](c2ccc3c(c2)CC[C@H](Cc2ccccc2)C3)C1
- concentration at 24 h [11]: 9 nM
- concentration at 4 h [12]: 28 nM
- Drug metabolism [13]: 11 nM
- Activity (Mus musculus [14]): 15%
- Drug metabolism [15]: 480 nM
- concentration at 24 h [16]: 300 nM
- Ratio [17]: 1
- Drug metabolism [18]: 12 nM
- Ratio [26]: 1.2
- Drug metabolism [19]: 310 nM
- Activity (Mus musculus [20]): 78%
- concentration at 4 h [21]: 1800 nM
- Activity (Mus musculus [22]): 21%
- Activity (Mus musculus [23]): 83%

Compound: N[C@]1(CO)CC[C@H](c2ccc3c(c2)CC[C@H](CCc2ccccc2)C3)C1
- concentration at 4 h [1]: 230 nM
- concentration at 24 h [2]: 300 nM
- Drug metabolism (Rattus norvegicus [4]): 40 nM
- Activity (Rattus norvegicus [5]): 11%
- Ratio [6]: 1.2
- Activity (Rattus norvegicus [7]): 78%
- half-life [10]: > 75 h

Second part, led by results:

- concentration at 4 h [1]: 90 nM
- concentration at 24 h [2]: 50 nM
- Drug metabolism (Rattus norvegicus [4]): 40 nM
- Ratio [6]: 1
- half-life [10]: 20 h
Compound: COc1ccccc1CC[C@H]1CCc2cc([C@H]3CC[C@](N)(CO)C3)ccc2C1
- Activity [3]: 10.5 mg/dL
- Activity (Rattus norvegicus [5]): 46%
- Activity (Rattus norvegicus [7]): 81%
- ED50 (Rattus norvegicus [8]): 0.05 mg/kg
- Activity [9]: 29 mg/dL

- concentration at 4 h [1]: 90 nM
- concentration at 24 h [2]: 80 nM
- Drug metabolism (Rattus norvegicus [4]): 160 nM
- Ratio [6]: 6.3
- half-life [10]: 31 h
Compound: COc1cccc(CC[C@@H]2CCc3cc([C@H]4CC[C@](N)(CO)C4)ccc3C2)c1
- Activity (Rattus norvegicus [5]): 69%
- Activity [27]: 10 mg/dL
- Activity (Rattus norvegicus [7]): 84%
- ED50 (Rattus norvegicus [8]): 0.05 mg/kg
- Activity [9]: 12.7 mg/dL

- concentration at 4 h [1]: 120 nM
- concentration at 24 h [2]: 210 nM
- Drug metabolism (Rattus norvegicus [4]): 30 nM
- Ratio [6]: 1.1
- half-life [10]: 49 h
Compound: COc1cccc(CC[C@H]2CCc3cc([C@H]4CC[C@](N)(CO)C4)ccc3C2)c1
- Activity [3]: 10 mg/dL
- Activity (Rattus norvegicus [5]): 44%
- Activity (Rattus norvegicus [7]): 85%
- ED50 (Rattus norvegicus [8]): 0.05 mg/kg
- Activity [9]: 17.5 mg/dL

- Drug metabolism [28]: 3%
Compound: COc1ccnc(CC[C@H]2CCc3cc([C@H]4CC[C@](N)(CO)C4)ccc3C2)c1

- Drug metabolism [28]: 6%
Compound: Cn1cc(CC[C@@H]2CCc3cc([C@H]4CC[C@](N)(CO)C4)ccc3C2)cn1

- Drug metabolism [28]: 8%
Compound: Cn1ccc(CC[C@@H]2CCc3cc([C@H]4CC[C@](N)(CO)C4)ccc3C2)n1
